Key:
[1] = AUC in mouse at 20 mg/kg, po; type: ADME, organism-based; design: dose 20 mg/kg, route oral; conditions: plasma
[2] = tested on: DU-145; assay: Antitumor activity against FGFR expressing human DU145 cells xenografted nude mouse assessed as tumor growth inhibition at 100 mg/kg/day, po; type: functional; conditions: read-out: TGI
[3] = Antitumor activity against PDGFRbeta expressing human KM12L4A cells xenografted nude mouse assessed as tumor growth inhibition at 100 mg/kg/day, po; type: functional; conditions: read-out: TGI
[4] = tested on: MV4-11; assay: Antitumor activity against PDGFRbeta expressing human MV4-11 cells xenografted SCID-NOD mouse assessed as tumor growth inhibition at 30 mg/kg/day, po; type: functional; conditions: read-out: TGI
[5] = Oral bioavailability in mouse at 20 mg/kg; type: ADME, organism-based; conditions: in vivo
[6] = tested on: MV4-11; assay: Antitumor activity against FLT3 ITD expressing human MV4-11 cells xenografted SCID-NOD mouse assessed as tumor growth inhibition at 1 mg/kg/day, po; type: functional; conditions: read-out: TGI
[7] = Antitumor activity against PDGFRbeta expressing human KM12L4A cells xenografted nude mouse assessed as tumor growth inhibition at 30 mg/kg/day, po; type: functional; conditions: read-out: TGI
[8] = Volume of distribution at steady state in rat at 5 mg/kg, iv; type: ADME, organism-based; design: dose 5 mg/kg, route intravenous; conditions: in vivo, read-out: Vdss
[9] = AUC in rat at 20 mg/kg, po; type: ADME, organism-based; design: dose 20 mg/kg, route oral; conditions: plasma
[10] = tested on: DU-145; assay: Antitumor activity against human DU145 cells xenografted nude mouse; type: functional
[11] = species on record: Mus musculus; assay: Antiangiogenic activity in BDF1 mouse Matrigel model assessed as inhibition of bFGF-mediated angiogenesis; type: functional
[12] = Clearance in rat at 5 mg/kg, iv; type: ADME, organism-based; design: dose 5 mg/kg, route intravenous; conditions: in vivo
[13] = Oral bioavailability in rat at 20 mg/kg; type: ADME, organism-based; conditions: in vivo
[14] = Inhibition of VEGF-mediated proliferation of HMVEC after 72 hrs; type: functional, cell-based; conditions: Homo sapiens
[15] = Antitumor activity against VEGFR expressing human KM12L4A cells xenografted nude mouse assessed as tumor growth inhibition at 10 mg/kg/day, po; type: functional; conditions: read-out: TGI
[16] = tested on: MV4-11; assay: Antitumor activity against VEGFR expressing human MV4-11 cells xenografted SCID-NOD mouse assessed as tumor growth inhibition at 5 mg/kg/day, po; type: functional; conditions: read-out: TGI
[17] = Clearance in mouse at 5 mg/kg, iv; type: ADME, organism-based; design: dose 5 mg/kg, route intravenous; conditions: in vivo
[18] = Half life in rat at 5 mg/kg, iv; type: ADME, organism-based; design: dose 5 mg/kg, route intravenous; conditions: in vivo
[19] = Volume of distribution at steady state in mouse at 5 mg/kg, iv; type: ADME, organism-based; design: dose 5 mg/kg, route intravenous; conditions: in vivo, read-out: Vdss
[20] = tested on: Mus musculus; assay: Antiangiogenic activity in BDF1 mouse Matrigel model assessed as inhibition of bFGF-mediated angiogenesis at 3 mg/kg, po for 8 days by colorimetric assay; type: functional; design: scale not given: the % may be the effect or the level left
[21] = tested on: MV4-11; assay: Antitumor activity against human MV4-11 cells xenografted SCID-NOD mouse; type: functional
[22] = tested on: MV4-11; assay: Antitumor activity against cKit expressing human MV4-11 cells xenografted SCID-NOD mouse assessed as tumor growth inhibition at 10 mg/kg/day, po; type: functional; conditions: read-out: TGI
[23] = Cmax in mouse at 20 mg/kg, po; type: ADME, organism-based; design: dose 20 mg/kg, route oral; conditions: in vivo
[24] = tested on: DU-145; assay: Antitumor activity against VEGFR expressing human DU145 cells xenografted nude mouse assessed as tumor growth inhibition at 10 mg/kg/day, po; type: functional; conditions: read-out: TGI
[25] = Cmax in rat at 20 mg/kg, po; type: ADME, organism-based; design: dose 20 mg/kg, route oral; conditions: in vivo
[26] = Half life in mouse at 5 mg/kg, iv; type: ADME, organism-based; design: dose 5 mg/kg, route intravenous; conditions: in vivo
[27] = Antitumor activity against human KM12L4A cells xenografted nude mouse; type: functional
[28] = tested on: DU-145; assay: Antitumor activity against PDGFRbeta expressing human DU145 cells xenografted nude mouse assessed as tumor growth inhibition at 30 mg/kg/day, po; type: functional; conditions: read-out: TGI

CN1CCN(c2ccc3nc(-c4c(N)c5c(F)cccc5[nH]c4=O)[nH]c3c2)CC1 [DOVITINIB]
AUC [1]: 6000 ng·h/mL
inhibition in vivo at 100 mg/kg/day [2]: 86%
inhibition in vivo at 100 mg/kg/day [3]: 95%
inhibition in vivo at 30 mg/kg/day [4]: 96%
bioavailability [5]: 77%
inhibition in vivo at 1 mg/kg/day [6]: 23%
inhibition in vivo at 30 mg/kg/day [7]: 55%
Vd [8]: 13 L/kg
AUC [9]: 5670 ng·h/mL
ED50 [10]: 23 mg/kg
minimal effective dose ([10]; read-out: MED): 30 mg/kg
ED50 [11]: 3 mg/kg
clearance [12]: 43 mL/min/kg
bioavailability [13]: 73%
EC50 [14]: 13 nM
inhibition in vivo at 10 mg/kg/day [15]: 44%
inhibition in vivo at 5 mg/kg/day [16]: 65%
clearance [17]: 42 mL/min/kg
half-life [18]: 3.5 h
Vd [19]: 12 L/kg
Activity [20]: 54%
ED50 [21]: 3 mg/kg
minimal effective dose ([21]; read-out: MED): 1 mg/kg
inhibition in vivo at 10 mg/kg/day [22]: 92%
Cmax [23]: 670 ng/mL
inhibition in vivo at 10 mg/kg/day [24]: 39%
Cmax [25]: 480 ng/mL
half-life [26]: 2.7 h
ED50 [27]: 17 mg/kg
minimal effective dose ([27]; read-out: MED): 10 mg/kg
inhibition in vivo at 30 mg/kg/day [28]: 70%

From ChEMBL document CHEMBL1139379, “Design, structure-activity relationships and in vivo characterization of 4-amino-3-benzimidazol-2-ylhydroquinolin-2-ones: a novel class of receptor tyrosine kinase inhibitors” (J Med Chem, 2009)
